Experimental data as given in patent US4229471A, “N-(2-Ethylhexyl)-crotonamides” (The Lion Dentifrice Co., Ltd., priority 1978, dated 1980).

How the values were obtained:
cancerous cells = assay: Carcinostatic activity (overall statement)
[1] = tested on: cancerized mast cells (Mastocytoma P-815); assay: Inhibition of growth of cancerized mast cells (Mastocytoma P-815) during 20 hours of cultivation; type: cell-based, mouse; details: 20 hour cultivation, 37° C., FIG. 5
Description: 20 ml of a culture medium containing cancerized mast cells of a mouse (Mastocytoma P-815) at an inoculum cell concentration of 1.6×10^5 cells/ml in Fischer and Sartorelli's medium supplemented with 5% fetal calf serium were cultured in a 120 ml Erlenmeyer flask with or without drugs to be tested in an atmosphere of 5% CO2 and 95% air at 37° C. for 20 hours in a humidified incubator. Drugs, N-(2-ethylhexyl)-crotonamide, N-(2-ethylhexyl)-β-methylcrotonamide or N-(2-ethylhexyl)-β-hydroxybutyramide were added in different amounts to the initial culture medium. No drug was added to a control solution. After cultivation, the number of cells was counted.
The results are shown in FIG. 5 wherein A corresponds to N-(2-ethylhexyl)-crotonamide, B corresponds to N-(2-ethylhexyl)-beta-methylcrotonamide, C corresponds to N-(2-ethylhexyl)-beta-hydroxybutyramide, D is the inoculum cell number, and E corresponds to the control. A, B, C and E are the cell numbers after 20 hour cultivation as described above.

Acute toxicity test = details: in vivo, ip; ICR male mouse, intraperitoneal
Mastocytoma P-815 = assay: Ascites tumor (Mastocytoma P-815) inhibition in BDF1 mice; type: in vivo; details: 0.5 mg/mouse/day × 6, intraperitoneal
Description: Mice of BDF1 species (5 week old male, suppliers: Charles River and Shizuoka Laboratory Animal Center) were divided into four groups each containing three to six. Cancerized mast cells (Mastocytoma P-815) were implanted into the ascites of a mouse in an amount of 1×10^6 cells/mouse. From the next day, drug
A: N-(2-ethylhexyl)-crotonamide,
B: N-(2-ethylhexyl)-beta-methylcrotonamide, or
C: N-(2-ethylhexyl)-beta-hydroxybutyramide
was administered once a day by intra-peritoneal injection in an amount of 0.5 mg/mouse/day for 6 days, respectively. After 18 hours from the last administration, the mice were killed with ether for anesthesia. The entire ascitic cells were taken out with about 20 ml of phosphate buffered saline. Using the nigrosine staining method (0.01% nigrosine in Earl's balanced salt solution), the number of cells, particularly, live cells were counted by means of a Thomas leucocyte counting apparatus.
For the above-described administration procedure was used 50 mg of the drug to which 25 mg of polyoxyethylene sorbitan monooleate (Tween 80) was added and the mixture was suspended in 5 ml of physiological salt solution and sterilized in an autoclave at 120° C. under 2 atm. for 15 minutes. The resulting sterile suspension was ready for administration.
**Tumor inhibition ratio was calculated in terms of the following
C : number of ascites cancer cells in the control group
N : number of ascites cancer cells in the treated group

Solubility = type: physicochemical; details: for solubility in organic solvents: organic solvents such as acetone
[2] = tested on: DNA synthesis in cancerized mast cells (Mastocytoma P-815); assay: 3H-TdR incorporation into DNA of cancerized mast cells; type: cell-based, mouse; details: for inhibition at 100 µg/mL / inhibition at 500 µg/mL: Mus musculus, P815, 1.25 h, read-out: DNA synthesis inhibition ratio
Description: Effects of drugs on ^3 H-TdR (tritium labelled thymidine) incorporation into DNA of cancerized mast cells were examined.
Cancerized mast cells (Mastocytoma P-815), 4.25×10^6 cells, were incubated for 15 minutes with or without each of drugs, A: (N-(2-ethylhexyl)-crotonamide), B: (N-(2-ethylhexyl)-β-methylcrotonamide) and C: (N-(2-ethylhexyl)-β-hydroxybutyramide) (each 100 μg and 500 μg) in 1 cc of Fischer culture medium. Thereafter, 0.1 μCi of ^3 H-TdR was added and incubation was proceeded for an additional 60 minutes. The cells were washed with PBS and the DNA was precipitated with 5% (W/V) trichloroacetic acid. Precipitates were counted in a liquid Scintillation Spectrometer.
*Inhibition ratio was calculated in terms of the following equation: […]
c : amount of ^3 H--TdR incorporated in the control group (cpm)
s : amount of ^3 H--TdR incorporated in the treated group (cpm)

[3] = Shizuoka Laboratory Animal Center BDF1 mice

C/C=C/C(=O)NCC(CC)CCCC (stereo not drawn) [Drug A, N-(2-ethylhexyl)-crotonamide]
carcinostatic activity (cancerous cells): high carcinostatic activity
inhibition of division and growth of cancerized mast cells [1]: more effective than N-(2-ethylhexyl)-β-hydroxybutyramide
LD50 (Acute toxicity test): 540 mg/kg
Number of ascites cancer cells (Mastocytoma P-815; Charles River BDF1 mice): 1.5 ×10^8 /mouse
Tumor inhibition ratio (Mastocytoma P-815; Charles River BDF1 mice): 90.9%
Number of ascites cancer cells (Mastocytoma P-815; [3]): 1.2 ×10^8 /mouse
Tumor inhibition ratio (Mastocytoma P-815; [3]): 87.6%
solubility in organic solvents (Solubility): soluble in organic solvents such as acetone
solubility in water (Solubility): insoluble in water
inhibition of DNA synthesis (in words) [2]: effective in inhibiting DNA synthesis
3H-TdR incorporated (cpm) ([2]; 100 μg in 1 cc medium): 400 cpm
3H-TdR incorporated (cpm) ([2]; 500 μg in 1 cc medium): 75 cpm
inhibition at 100 µg/mL ([2]; 100 μg in 1 cc medium): 90.1%
inhibition at 500 µg/mL ([2]; 500 μg in 1 cc medium): 98.1%

CCCCC(CC)CNC(=O)C=C(C)C (stereo not drawn) [Drug B, N-(2-ethylhexyl)-β-methylcrotonamide]
carcinostatic activity (cancerous cells): high carcinostatic activity
inhibition of division and growth of cancerized mast cells [1]: more effective than N-(2-ethylhexyl)-β-hydroxybutyramide
LD50 (Acute toxicity test): 1400 mg/kg
Number of ascites cancer cells (Mastocytoma P-815; Charles River BDF1 mice): 9.5 ×10^8 /mouse
Tumor inhibition ratio (Mastocytoma P-815; Charles River BDF1 mice): 42.1%
Number of ascites cancer cells (Mastocytoma P-815; [3]): 4.0 ×10^8 /mouse
Tumor inhibition ratio (Mastocytoma P-815; [3]): 58.8%
solubility in organic solvents (Solubility): soluble in organic solvents such as acetone
solubility in water (Solubility): insoluble in water
inhibition of DNA synthesis (in words) [2]: effective in inhibiting DNA synthesis
3H-TdR incorporated (cpm) ([2]; 100 μg in 1 cc medium): 200 cpm
3H-TdR incorporated (cpm) ([2]; 500 μg in 1 cc medium): 0 cpm
inhibition at 100 µg/mL ([2]; 100 μg in 1 cc medium): 95.1%
inhibition at 500 µg/mL ([2]; 500 μg in 1 cc medium): 100%

CCCCC(CC)CNC(=O)CC(C)O (stereo not drawn) [Drug C, N-(2-ethylhexyl)-β-hydroxybutyramide, reference compound]
Number of ascites cancer cells (Mastocytoma P-815; Charles River BDF1 mice): 6.0 ×10^8 /mouse
Tumor inhibition ratio (Mastocytoma P-815; Charles River BDF1 mice): 63.4%
Number of ascites cancer cells (Mastocytoma P-815; [3]): 6.7 ×10^8 /mouse
Tumor inhibition ratio (Mastocytoma P-815; [3]): 30.9%
3H-TdR incorporated (cpm) ([2]; 100 μg in 1 cc medium): 2205 cpm
3H-TdR incorporated (cpm) ([2]; 500 μg in 1 cc medium): 1200 cpm
inhibition at 100 µg/mL ([2]; 100 μg in 1 cc medium): 45.6%
inhibition at 500 µg/mL ([2]; 500 μg in 1 cc medium): 70.4%
